Assay results reported in patent publication US9427415B2, “Methods and compositions for modifying sensorial perception” (The Procter & Gamble Company, priority 2014, dated 2016).
Like-named read-outs stand apart in the source and are kept apart here.

Legend:
human TRPA1 = biological target: T1, human TRPA1 (Homo sapiens, UniProt O75762, K186N/R3C/R58T); test: Intracellular calcium (Fluo-4, FLIPR) activation of TRPA1 cells by GRAS compounds; assay type: cell-based; details: relative to AITC 30 μM; for activation at 1000 µM / activation at 100 µM: read-out: A1 activation, % of agonist value;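 for all read-outs here: TRPA1-expressing cells, fluorescence read on a FLIPR Tetra (ex 488 nm, em 514 nm) every 2 s for 10 min after compound addition, baseline subtracted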
T1 construct: expressed in transfected cells; pcDNA3 control cells
T1 sequence (O75762 whole entry R3C/R58T/K186N): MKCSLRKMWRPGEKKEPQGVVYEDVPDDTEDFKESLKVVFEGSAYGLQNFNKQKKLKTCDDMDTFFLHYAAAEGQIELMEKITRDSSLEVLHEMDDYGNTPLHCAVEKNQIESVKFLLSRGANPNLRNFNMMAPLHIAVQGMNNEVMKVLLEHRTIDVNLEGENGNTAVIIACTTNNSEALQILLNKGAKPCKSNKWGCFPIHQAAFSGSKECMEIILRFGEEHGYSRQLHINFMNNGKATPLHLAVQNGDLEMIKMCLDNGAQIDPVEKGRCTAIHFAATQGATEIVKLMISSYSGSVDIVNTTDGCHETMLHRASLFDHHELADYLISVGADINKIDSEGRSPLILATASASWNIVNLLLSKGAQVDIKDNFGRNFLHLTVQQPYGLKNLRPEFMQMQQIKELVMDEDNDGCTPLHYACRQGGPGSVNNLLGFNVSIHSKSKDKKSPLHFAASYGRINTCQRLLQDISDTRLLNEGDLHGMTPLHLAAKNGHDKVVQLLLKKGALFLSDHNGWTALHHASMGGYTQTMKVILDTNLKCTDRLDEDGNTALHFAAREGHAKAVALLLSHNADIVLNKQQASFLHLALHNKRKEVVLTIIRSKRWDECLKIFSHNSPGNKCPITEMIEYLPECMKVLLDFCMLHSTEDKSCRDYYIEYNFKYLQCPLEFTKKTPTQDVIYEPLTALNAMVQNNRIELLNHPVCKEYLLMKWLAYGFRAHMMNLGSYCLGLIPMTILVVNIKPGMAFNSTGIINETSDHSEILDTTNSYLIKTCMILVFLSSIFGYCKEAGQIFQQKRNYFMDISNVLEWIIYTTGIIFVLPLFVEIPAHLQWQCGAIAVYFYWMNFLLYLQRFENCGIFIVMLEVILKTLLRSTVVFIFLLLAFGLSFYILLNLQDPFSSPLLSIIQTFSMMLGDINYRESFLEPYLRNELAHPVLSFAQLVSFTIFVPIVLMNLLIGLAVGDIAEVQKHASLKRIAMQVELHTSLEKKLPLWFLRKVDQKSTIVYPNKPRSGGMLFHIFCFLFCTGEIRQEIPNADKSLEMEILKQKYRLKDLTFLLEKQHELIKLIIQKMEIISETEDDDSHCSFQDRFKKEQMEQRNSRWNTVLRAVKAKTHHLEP

TRPA1V1 = test: Intracellular calcium (Fluo-4, FLIPR) activation of TRPA1V1 cells (co-expressing TRPA1 and TRPV1) by GRAS compounds; assay type: cell-based, human;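 note: HEK293 cells co-expressing TRPA1 and TRPV1, fluorescence read at 488/514 nm after baseline subtraction, recorded every 2 s over 10 min, ionomycin 10 µM and buffer as controls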
Procedure: TRPV1, TRPA1, TRPA1V1 and pcDNA3 cells were grown in 15 mL growth medium [high glucose DMEM (Dulbecco's modification of Eagle's medium) supplemented with 10% FBS (fetal bovine serum), 100 μg/mL penicillin/streptomycin, 100 μg/mL G418] in a 75 cm^2 flask for 3 days in a mammalian cell culture incubator at 33° C. and 5% CO2. TRP Cells were detached with 8 mL of PBS (without calcium or magnesium); for pcDNA3 cells, trypsin was used for releasing the cells. The detached cells were spun at low speed (800-900 rpm for 3 min) to pellet the cells. […] The cells were washed once with 45 mL assay buffer (1×HBSS, 20 mM HEPES) by low speed centrifugation (800-900 rpm for 3 min) and resuspended in 11 mL of the assay buffer in a reagent reservoir. […] The plates were set at room temperature for 30 min. The plates were read in a FLIPR^TETRA instrument (Molecular Devices, Sunnyvale, Calif.) at λex 488 nm and λem 514 nm to record baseline fluorescence following which 20 μL of test material at 1 mM or 100 μM final concentration for pure compounds in a GRAS library or 0.004% for extracts. For agonists, capsaicin 350 nM and AITC at 30 μM; and for controls, ionomycin 10 μM and buffer alone) was added to each well using the dispenser provided in the FLIPR. The data point was recorded every 2 seconds for a total of 10 min.
Average value for activation from three independent assay plates are presented as % of agonist value (AITC, 30 μM for TRPA1 and capsaicin, 350 nM for TRPV1. For TRPA1V1, we used AITC, 30 μM or capsaicin, 350 nM depending on if the compound is an A1 agonist or a V1 agonist. For compounds that activated both A1 and V1, we used AITC for normalization). Variation among triplicates was within 10% of each other. Assayed at 1 mM for pure compounds and 0.004% for extracts.

human TRPV1 = biological target: T2, human TRPV1 (Homo sapiens, UniProt Q8NER1, M315I/T336M); test: Intracellular calcium (Fluo-4, FLIPR) activation of TRPV1 cells by GRAS compounds; assay type: cell-based; details: for TRPV1 activation selectivity, in words: statement in description, see Table 1(i);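 for all read-outs here: TRPV1-expressing cells, FLIPR fluorescence at 488/514 nm with baseline subtracted, sampled every 2 s for 10 min after adding compound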
T2 construct: expressed in transfected cells; pcDNA3 control cells
T2 sequence (Q8NER1 whole entry M315I/T336M): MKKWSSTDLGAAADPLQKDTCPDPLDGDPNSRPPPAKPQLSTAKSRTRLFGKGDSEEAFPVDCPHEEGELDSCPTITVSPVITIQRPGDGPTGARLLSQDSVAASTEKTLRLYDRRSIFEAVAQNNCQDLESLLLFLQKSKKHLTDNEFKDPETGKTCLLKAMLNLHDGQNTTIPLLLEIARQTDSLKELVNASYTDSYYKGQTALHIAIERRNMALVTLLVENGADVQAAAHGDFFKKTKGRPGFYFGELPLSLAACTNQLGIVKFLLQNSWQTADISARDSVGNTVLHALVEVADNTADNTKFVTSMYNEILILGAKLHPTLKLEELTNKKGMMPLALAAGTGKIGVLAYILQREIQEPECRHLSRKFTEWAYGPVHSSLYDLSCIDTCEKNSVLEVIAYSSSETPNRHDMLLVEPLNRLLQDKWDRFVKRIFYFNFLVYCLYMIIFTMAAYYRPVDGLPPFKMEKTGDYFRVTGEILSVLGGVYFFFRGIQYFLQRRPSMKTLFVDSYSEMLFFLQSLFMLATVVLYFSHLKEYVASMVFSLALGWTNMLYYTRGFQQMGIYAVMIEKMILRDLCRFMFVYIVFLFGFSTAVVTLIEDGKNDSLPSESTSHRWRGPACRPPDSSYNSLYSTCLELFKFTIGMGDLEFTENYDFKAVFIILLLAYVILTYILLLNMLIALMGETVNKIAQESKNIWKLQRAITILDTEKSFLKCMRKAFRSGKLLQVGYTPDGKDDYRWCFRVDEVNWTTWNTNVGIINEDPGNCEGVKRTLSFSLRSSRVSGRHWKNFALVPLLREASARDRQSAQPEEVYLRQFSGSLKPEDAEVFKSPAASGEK

[1] = Table 1(a), 1 mM, average of three plates
[2] = Table 1(a), 1 mM, relative to AITC 30 μM, average of three plates
[3] = Table 1(a), 1 mM, relative to capsaicin 350 nM, average of three plates, read-out: V1 activation, % of agonist value
[4] = Table 1(g), 1 mM, relative to capsaicin 350 nM
[5] = Table 1(g), 1 mM, relative to capsaicin 350 nM, read-out: V1 activation, % of agonist value
[6] = Table 1(h), 100 μM (marked *), relative to capsaicin 350 nM
[7] = Table 1(f), 1 mM, relative to capsaicin 350 nM
[8] = Table 1(f), 1 mM, relative to capsaicin 350 nM, read-out: V1 activation, % of agonist value
[9] = Table 1(h), 1 mM, relative to capsaicin 350 nM
[10] = Table 1(h), 1 mM, relative to capsaicin 350 nM, read-out: V1 activation, % of agonist value

CCC(S)C(C)=O (centres unmarked) [3-Mercapto-2-pentanone]
activation at 1000 µM (human TRPA1; [1]): 92% | activation at 100 µM (human TRPA1; Table 1(c), 100 μM (*)): 103% | A1V1 activation, % of agonist value (TRPA1V1; [2]): 72.6% | A1V1 activation, % of agonist value (TRPA1V1; Table 1(c), 100 μM (*), relative to AITC 30 μM): 100% | activation at 1000 µM (human TRPV1; [3]): 59.2%

CC(=O)c1ccc(C)cc1 [4′-Methylacetophenone]
A1V1 activation, % of agonist value (TRPA1V1; [4]): 136.6% | activation at 1000 µM (human TRPV1; [5]): 55%

CC/C=C\CCOC(=O)C(C)=O [Pyruvic caid cis-3-hexen-1-yl ester]
A1 activation, % of agonist value (human TRPA1; [1]): 45% | A1V1 activation, % of agonist value (TRPA1V1; [2]): 40% | V1 activation, % of agonist value (human TRPV1; Table 1(a), 1 mM, relative to capsaicin 350 nM, average of three plates): 21%

Cc1ccc(C=O)s1 [5-Methyl-2-thiophenecarboxaldehyde]
A1V1 activation, % of agonist value (TRPA1V1; [4]): 111.4% | activation at 1000 µM (human TRPV1; [5]): 58.9%

O=C(O)[C@H](O)[C@@H](O)C(=O)O [L-(+)-Tartaric acid]
A1V1 activation, % of agonist value (TRPA1V1; [6]): 38.4% | V1 activation, % of agonist value (human TRPV1; [6]): 60.4%

CC(=O)CC(=O)OCC(C)C [Isobutyle acetoacetate]
A1V1 activation, % of agonist value (TRPA1V1; [4]): 81.9% | V1 activation, % of agonist value (human TRPV1; [4]): 54.1%

C=CCSCC=C [1-Propene, 3,3′-thiobis-]
A1V1 activation, % of agonist value (TRPA1V1; [4]): 108.4% | activation at 1000 µM (human TRPV1; [5]): 47.3%

CCc1ccco1 [2-Ethylfuran]
activation at 100 µM (human TRPA1; Table 1(i), 100 μM (*), […]): 1.2% | A1V1 activation, % of agonist value (TRPA1V1; Table 1(i), 100 μM (*), relative to AITC 30 μM or capsaicin 350 nM depending on compound, […]): 1.8% | activation at 100 µM (human TRPV1; Table 1(i), 100 μM (*), relative to capsaicin 350 nM, […], read-out: V1 activation, % of agonist value): 58.7% | TRPV1 activation selectivity, in words (human TRPV1): TRPV1 activators which do not modulate TRPA1 or TRPA1V1

CCC(C)COC(=O)CC(C)C (centres unmarked) [2-Methylbutyl isovalerate]
activation at 1000 µM (human TRPA1; Table 1(i), 1 mM, […]): 1.7% | A1V1 activation, % of agonist value (TRPA1V1; Table 1(i), 1 mM, relative to AITC 30 μM or capsaicin 350 nM depending on compound, […]): 2.1% | activation at 1000 µM (human TRPV1; Table 1(i), 1 mM, relative to capsaicin 350 nM, […], read-out: V1 activation, % of agonist value): 75.3% | TRPV1 activation selectivity, in words (human TRPV1): TRPV1 activators which do not modulate TRPA1 or TRPA1V1

C=Cc1ccc(O)c(OC)c1 [2-Methoxy-4-vinylphenol]
activation at 1000 µM (human TRPA1; [1]): 74.8% | A1V1 activation, % of agonist value (TRPA1V1; [2]): 81.90% | activation at 1000 µM (human TRPV1; [3]): 20.7%

CC(C)=CCC/C(C)=C/CO [Geraniol]
activation at 1000 µM (human TRPA1; Table 1(b), 1 mM): 82.5% | A1V1 activation, % of agonist value (TRPA1V1): 63.93% | activation at 1000 µM (human TRPV1; read-out: V1 activation, % of agonist value): 42.2%

S=C=NCc1ccccc1 [Isothiocyanic acid, benzyl ester]
activation at 1000 µM (human TRPA1; [1]): 110% | A1V1 activation, % of agonist value (TRPA1V1; [2]): 180.5% | activation at 1000 µM (human TRPV1; [3]): 59.2%

CCCCCC(=Cc1ccccc1)CO [Alpha-Amylcinnamyl alcohol]
activation at 1000 µM (human TRPA1; [1]): 96.4% | A1V1 activation, % of agonist value (TRPA1V1; [2]): 77.36% | activation at 1000 µM (human TRPV1; [3]): 21.1%

Sc1ccc2ccccc2c1 [2-Napthlaenthiol]
A1 activation, % of agonist value (human TRPA1; Table 1(a), 100 μM (*)): 66.3% | A1V1 activation, % of agonist value (TRPA1V1; Table 1(a), 100 μM (*), relative to AITC 30 μM): 85.2% | V1 activation, % of agonist value (human TRPV1; Table 1(a), 100 μM (*), relative to capsaicin 350 nM): 120.3%

CC1(C)[C@@H](O[C@H]2O[C@H](C(=O)O)[C@@H](O)[C@H](O)[C@H]2O[C@@H]2O[C@H](C(=O)O)[C@@H](O)[C@H](O)[C@H]2O)CC[C@]2(C)[C@H]3C(=O)C=C4[C@@H]5C[C@@](C)(C(=O)O)CC[C@]5(C)CC[C@@]4(C)[C@]3(C)CC[C@@H]12 [18beta-Glycyrrhizinic acid]
A1V1 activation, % of agonist value (TRPA1V1; [4]): 162.7% | V1 activation, % of agonist value (human TRPV1; [4]): 100.9%

CCCCCCC1CCC(=O)O1 (centres unmarked) [4-Decanolide]
A1V1 activation, % of agonist value (TRPA1V1; [7]): 35.8% | activation at 1000 µM (human TRPV1; [8]): 40.9%

CCCCC1CCCCC(=O)O1 (centres unmarked) [Epsilon-Decalactone]
A1V1 activation, % of agonist value (TRPA1V1; [7]): 52.9% | V1 activation, % of agonist value (human TRPV1; [7]): 47.7%

O=C(O)C(O)C(O)C(=O)O (centres unmarked) [Tartaric acid]
A1V1 activation, % of agonist value (TRPA1V1; [9]): 29.6% | activation at 1000 µM (human TRPV1; [10]): 55.8%

CCCCCCCCCC1CCCC(=O)O1 (centres unmarked) [Delta-tetradecalactone]
A1V1 activation, % of agonist value (TRPA1V1; [4]): 61.7% | V1 activation, % of agonist value (human TRPV1; [4]): 33.0%

CC(=O)S [Acetic acid, thio-]
A1V1 activation, % of agonist value (TRPA1V1; [4]): 115.1% | V1 activation, % of agonist value (human TRPV1; [4]): 61.9%

CCC(C)(O)CCc1ccccc1 (centres unmarked) [3-Methyl-1-phenyl-3-pentanol]
A1V1 activation, % of agonist value (TRPA1V1; [9]): 70.5% | activation at 1000 µM (human TRPV1; [10]): 100%

CC(C)c1ccccc1O [2-Isopropylphenol]
A1V1 activation, % of agonist value (TRPA1V1; [9]): 83.5% | activation at 1000 µM (human TRPV1; [10]): 108%

CCc1ccc(C=O)cc1 [4-Ethylbenzaldehyde]
A1V1 activation, % of agonist value (TRPA1V1; [4]): 120.3% | activation at 1000 µM (human TRPV1; [5]): 56.3%

CC(=O)c1cc(C)sc1C [3-Acetyl-2,5-dimethylthiophene]
A1V1 activation, % of agonist value (TRPA1V1; [7]): 84.9% | activation at 1000 µM (human TRPV1; [8]): 95.1%

CCCCCCCC(=O)O [Octanoic acid]
A1V1 activation, % of agonist value (TRPA1V1; [7]): 83.4% | activation at 1000 µM (human TRPV1; [8]): 73.7%

CCCCCCCC1CC(C)OC1=O (centres unmarked) [3-Heptyldihydro-5-methylfuran-2(3H)-one]
A1V1 activation, % of agonist value (TRPA1V1; [7]): 40.5% | activation at 1000 µM (human TRPV1; [8]): 45.5%
